From PMC12332157, “A preclinical study on the influence of linkers in [^68Ga]Ga-NOTA-X-RM26 radiotracers for PET imaging of GRPR expression” (EJNMMI Research, 2025) come the findings set out here.

Where two headings read alike, the source gives them in different places. Starred links: 1 amine or outer side, 2 acyl side, 3 side chain; linkers in the order of their positions; H or OH if unused. Non-standard residues stand in square brackets, D forms with d. Residues, ends and D or L forms follow the SMILES beside them. *: point of attachment. NOTA = O=C(O)CN1CCN(CC(=O)O)CCN(CC(=O)*)CC1; Sta = CC(C)C[C@H](N)[C@@H](O)CC(=O)O; X2 = O=C(COc1cccc(CN[*:1])c1)[*:2]; X1 = O=C(Cc1ccccc1CCN[*:1])[*:2]; X3 = O=C(COc1ccccc1CN[*:1])[*:2]

The target of one data set is T1, GRPR (Homo sapiens, UniProt P30550).
T1 construct: endogenous in cells; host or cells: PC-3 human prostate cancer cells
T1 sequence (P30550 whole entry): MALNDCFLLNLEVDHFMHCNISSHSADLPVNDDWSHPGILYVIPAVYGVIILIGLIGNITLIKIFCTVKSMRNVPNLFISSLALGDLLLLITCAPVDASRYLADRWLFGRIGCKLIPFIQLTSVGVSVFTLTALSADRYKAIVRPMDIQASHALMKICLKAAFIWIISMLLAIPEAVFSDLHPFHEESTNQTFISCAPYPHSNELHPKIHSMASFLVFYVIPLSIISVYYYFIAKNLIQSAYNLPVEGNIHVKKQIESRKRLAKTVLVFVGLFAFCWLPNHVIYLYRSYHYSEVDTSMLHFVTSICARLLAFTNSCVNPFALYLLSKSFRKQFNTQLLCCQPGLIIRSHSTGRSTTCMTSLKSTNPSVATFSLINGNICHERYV
The experiment in a line: Competitive binding against [125I]I-Tyr4-bombesin on PC-3 cells. The settings on record: natGa-loaded peptide vs [125I]I-Tyr4-bombesin, 5 h at 4 °C. As to the method: In short, 30 nmol of the respective peptide was mixed with 10 µL of 9 mM GaCl3, 150 µL of 0.1 M HCl, and 250 µL of 1 M sodium acetate (pH 4.5). The mixture was then incubated at 70 °C for 60 min.
PC-3 cells were seeded in 12-well plates at 10^5 cells per well density and incubated overnight. Then, the media was aspirated, and cells were washed with 500 µL of cold PBS buffer, containing 1% w/v bovine serum albumin (PBS/BSA buffer). Then the cells were treated with 350 µL of cold PBS/BSA buffer, 50 µL of the metalated ligand at different concentrations (from 0 to 1000 nM), and 100 µL of [^125I]I-Tyr^4-bombesin (PerkinElmer, Waltham, MA, USA) in PBS/1% BSA buffer, at 24.6 fmol/well concentration. Cells were incubated for 5 h at 4°C to reach equilibrium of binding. After that, the supernatant was removed, cells were washed with cold PBS buffer containing 1% BSA, and collected using 1 mL of 1 M NaOH heated to 37 °C. The radioactivity was measured by a Wizard 2480 gamma counter (PerkinElmer, Waltham, MA, USA). The experiments were performed in triplicates (n = 3) and the data were fitted to the curves with a nonlinear regression model in GraphPad Prism 7.

Data set [1] has as its system PC-3 xenograft bearing BALB/c nu/nu mice. The experiment in a line: Biodistribution in BALB/c nu/nu mice bearing PC-3 xenografts. Type of data set: in vivo. The settings on record: 2 h p.i. As to the method: (§1) Female BALB/c nu/nu mice of 18–22 g weight were used in the study. All procedures with animals were conducted in accordance with the EU Directive 2010/63/EU for animal experiments and Swedish national legislation concerning the protection of laboratory animals. The experiments were approved by the ethics committee for animal research in Uppsala (Sweden) with permit number 5.8.18–00473/2021. Animals were housed in individually ventilated cages, under a 12-h light/dark cycle with free access to food and water.
(§2) For tumor inoculation, 8·10^6 PC-3 cells in 100 µL PBS were injected subcutaneously into the right hind leg of mice. Mouse weight and tumor size were measured every 2–3 days, and tumor volume was estimated by ellipsoid approximation. A predefined humane endpoint of the experiment was either a 15% weight loss or a tumor volume of 1000 mm^3, neither of which was reached.
(§3) Four weeks after tumor cell implantation, mice were randomized and divided into 6 groups (4 animals / group): 3 of them received treatment with ^68Ga-radiolabeled peptides, while the other 3 received the same peptides in addition to 5 nmol of non-labeled NOTA-PEG2-RM26 peptide for GRPR-blocking. Peptides were injected intravenously via the tail veins at a dose of 50 pmol (700 kBq radioactivity dose).
(§4) At 2 h post injection, mice were sacrificed by overdose of Ketamine/Xylazine anesthesia, and blood was collected by heart puncture. Then, liver, spleen, lungs, pancreas, kidneys, small intestine, stomach, tail, femur bones, tumor and muscle from the opposite legs were collected, weighed, and radioactivity was measured using a Wizard 2480 gamma counter. Data are presented as percentages of injected activity per gram of tissue (%IA/g).

Assay in data set [2]: as above
Type of data set: in vivo. The settings on record: female, BALB/c nu/nu, mouse, iv, total radioactivity. On the procedure: as §1, §2, §3, §4

Data set [3] can be described thus: Complex stability of 68Ga-labeled peptides in PBS or EDTA solution in PBS (iTLC). Type of data set: physicochemical. The settings on record: n = 3, mean ± sd.
Data set [4] is described as follows: Octanol-water distribution coefficient (LogD). Type of data set: physicochemical. The settings on record: n-octanol/PBS; n = 3; mean ± sd. As to the method: Octanol-water distribution coefficient (LogD) was determined by adding 10 pmol of radiopeptide to an Eppendorf tube containing 500 µL of phosphate-buffered saline (PBS) and 500 µL of n-octanol. Each tube was vortexed for 2 min and centrifuged at 6000 g for 5 min. Three 100 µL fractions were collected from each phase, and their radioactivity was measured.

The IC50 is the concentration at which inhibition is half-maximal. A low value points to greater potency. The fraction remaining is the share of the starting amount still present when the sample was taken. A low value points to more turnover. The logD is the decadic logarithm of the distribution of all forms, ionised or not, between an organic phase and buffer at a given pH. High values mean a more lipophilic compound, low ones a more hydrophilic compound.

`CC(=O)N[C@@H](CCCCNC(=O)CN1CCN(CC(=O)O)CCN(CC(=O)O)CC1)C(=O)NCCc1ccccc1CC(=O)N[C@H](Cc1ccccc1)C(=O)N[C@@H](CCC(N)=O)C(=O)N[C@@H](Cc1c[nH]c2ccccc12)C(=O)N[C@@H](C)C(=O)N[C@H](C(=O)NCC(=O)N[C@@H](Cc1c[nH]cn1)C(=O)N[C@@H](CC(C)C)[C@@H](O)CC(=O)N[C@@H](CC(C)C)C(N)=O)C(C)C` [^natGa-NOTA-oET-RM26, metal not drawn] (Ac-K(NOTA)[X1][dF]QWAVGH[Sta]L-NH2): at GRPR, the half-inhibitory concentration (IC50) came out at 3.4 nM.

With `CC(=O)N[C@@H](CCCCNC(=O)CN1CCN(CC(=O)O)CCN(CC(=O)O)CC1)C(=O)NCCc1ccccc1CC(=O)N[C@H](Cc1ccccc1)C(=O)N[C@@H](CCC(N)=O)C(=O)N[C@@H](Cc1c[nH]c2ccccc12)C(=O)N[C@@H](C)C(=O)N[C@H](C(=O)NCC(=O)N[C@@H](Cc1c[nH]cn1)C(=O)N[C@@H](CC(C)C)[C@@H](O)CC(=O)N[C@@H](CC(C)C)C(N)=O)C(C)C` [NOTA-oET-RM26] (Ac-K(NOTA)[X1][dF]QWAVGH[Sta]L-NH2), in data set [1], the “peptide accumulation in the liver and lungs” value is given as “lowest activity uptake”; the tumor-to-liver ratio result is on record as “best tumor-to-liver ratio”.

Turning to `CC(=O)N[C@@H](CCCCNC(=O)CN1CCN(CC(=O)O)CCN(CC(=O)O)CC1)C(=O)NCc1cccc(OCC(=O)N[C@H](Cc2ccccc2)C(=O)N[C@@H](CCC(N)=O)C(=O)N[C@@H](Cc2c[nH]c3ccccc23)C(=O)N[C@@H](C)C(=O)N[C@H](C(=O)NCC(=O)N[C@@H](Cc2c[nH]cn2)C(=O)N[C@@H](CC(C)C)[C@@H](O)CC(=O)N[C@@H](CC(C)C)C(N)=O)C(C)C)c1` [^natGa-NOTA-mMA-RM26, metal not drawn] (Ac-K(NOTA)[X2][dF]QWAVGH[Sta]L-NH2), at GRPR, the half-inhibitory concentration (IC50) stood at 0.27 nM.

As to `CC(=O)N[C@@H](CCCCNC(=O)CN1CCN(CC(=O)O)CCN(CC(=O)O)CC1)C(=O)NCc1ccccc1OCC(=O)N[C@H](Cc1ccccc1)C(=O)N[C@@H](CCC(N)=O)C(=O)N[C@@H](Cc1c[nH]c2ccccc12)C(=O)N[C@@H](C)C(=O)N[C@H](C(=O)NCC(=O)N[C@@H](Cc1c[nH]cn1)C(=O)N[C@@H](CC(C)C)[C@@H](O)CC(=O)N[C@@H](CC(C)C)C(N)=O)C(C)C` [^natGa-NOTA-oMA-RM26, metal not drawn] (Ac-K(NOTA)[X3][dF]QWAVGH[Sta]L-NH2), the IC50 at GRPR was found to be 1.3 nM.

On to `CC(=O)N[C@@H](CCCCNC(=O)CN1CCN(CC(=O)O)CCN(CC(=O)O)CC1)C(=O)NCCc1ccccc1CC(=O)N[C@H](Cc1ccccc1)C(=O)N[C@@H](CCC(N)=O)C(=O)N[C@@H](Cc1c[nH]c2ccccc12)C(=O)N[C@@H](C)C(=O)N[C@H](C(=O)NCC(=O)N[C@@H](Cc1c[nH]cn1)C(=O)N[C@@H](CC(C)C)[C@@H](O)CC(=O)N[C@@H](CC(C)C)C(N)=O)C(C)C` [[^68Ga]Ga-NOTA-oET-RM26, metal not drawn] (Ac-K(NOTA)[X1][dF]QWAVGH[Sta]L-NH2), for which the tissue uptake at 2 h in data set [2] (blood, 50 pmol, 2 h p.i., i.v., read-out: Radionuclide concentration, Blood) is 0.54 ± 0.01 %ID/g; in data set [2] (blood, Blockade (co-injection of NOTA-PEG2-RM26), 2 h, read-out: Radionuclide concentration, Blood), 0.31 ± 0.04 %ID/g; in data set [2] (bone, 50 pmol, 2 h p.i., i.v., read-out: Radionuclide concentration, Bone), 0.44 ± 0.04 %ID/g; in data set [2] (bone, Blockade (co-injection of NOTA-PEG2-RM26), 2 h, read-out: Radionuclide concentration, Bone), 0.33 ± 0.07 %ID/g; in data set [2] (kidneys, 50 pmol, 2 h p.i., i.v., read-out: Radionuclide concentration, Kidneys) it was 5.9 ± 0.6 %ID/g; in data set [2] (kidneys, Blockade (co-injection of NOTA-PEG2-RM26), 2 h, read-out: Radionuclide concentration, Kidneys) it was 3.3 ± 2.3 %ID/g. The tissue uptake at 2 h worked out at 1.9 ± 0.2 %ID/g in data set [2] (liver, 50 pmol, 2 h p.i., i.v., read-out: Radionuclide concentration, Liver); 1.3 ± 0.1 %ID/g in data set [2] (liver, Blockade (co-injection of NOTA-PEG2-RM26), 2 h, read-out: Radionuclide concentration, Liver); 0.45 ± 0.27 %ID/g in data set [2] (lungs, 50 pmol, 2 h p.i., i.v., read-out: Radionuclide concentration, Lungs); 0.37 ± 0.02 %ID/g in data set [2] (lungs, Blockade (co-injection of NOTA-PEG2-RM26), 2 h, read-out: Radionuclide concentration, Lungs); 0.15 ± 0.01 %ID/g in data set [2] (muscle, 50 pmol, 2 h p.i., i.v., read-out: Radionuclide concentration, Muscle); 0.15 ± 0.13 %ID/g in data set [2] (muscle, Blockade (co-injection of NOTA-PEG2-RM26), 2 h, read-out: Radionuclide concentration, Muscle). The tissue uptake at 2 h came out at 11.7 ± 2.4 %ID/g in data set [2] (pancreas, 50 pmol, 2 h p.i., i.v., read-out: Radionuclide concentration, Pancreas); 1.2 ± 0.2 %ID/g in data set [2] (pancreas, Blockade (co-injection of NOTA-PEG2-RM26), 2 h, read-out: Radionuclide concentration, Pancreas); 2.4 ± 0.4 %ID/g in data set [2] (small intestine, 50 pmol, 2 h p.i., i.v., read-out: Radionuclide concentration, Small Intestines); 0.33 ± 0.24 %ID/g in data set [2] (small intestine, Blockade (co-injection of NOTA-PEG2-RM26), 2 h, read-out: Radionuclide concentration, Small Intestines); 0.46 ± 0.06 %ID/g in data set [2] (spleen, 50 pmol, 2 h p.i., i.v., read-out: Radionuclide concentration, Spleen); 0.28 ± 0.07 %ID/g in data set [2] (spleen, Blockade (co-injection of NOTA-PEG2-RM26), 2 h, read-out: Radionuclide concentration, Spleen). Moreover, the tissue uptake at 2 h in data set [2] (stomach, 50 pmol, 2 h p.i., i.v., read-out: Radionuclide concentration, Stomach) was found to be 2.6 ± 0.6 %ID/g; in data set [2] (stomach, Blockade (co-injection of NOTA-PEG2-RM26), 2 h, read-out: Radionuclide concentration, Stomach), 0.55 ± 0.19 %ID/g; in data set [2] (tumor (PC-3 xenograft), 50 pmol, 2 h p.i., i.v., PC-3 xenograft, read-out: Radionuclide concentration, Tumor), 11.2 ± 3.4 %ID/g; in data set [2] (tumor (PC-3 xenograft), Blockade (co-injection of NOTA-PEG2-RM26), 2 h, read-out: Radionuclide concentration, Tumor), 1.3 ± 0.2 %ID/g. The tissue uptake dose at 2 h was found to be 4.1 ± 1.1 %ID in data set [2] (carcass, 50 pmol, 2 h p.i., i.v., read-out: Radionuclide quantity, Carcass); 3.1 ± 1.8 %ID in data set [2] (carcass, Blockade (co-injection of NOTA-PEG2-RM26), 2 h, read-out: Radionuclide quantity, Carcass); 5.9 ± 0.5 %ID in data set [2] (gastrointestinal tract, 50 pmol, 2 h p.i., i.v., read-out: Radionuclide quantity, Gastrointestinal tract); 3.5 ± 0.7 %ID in data set [2] (gastrointestinal tract, Blockade (co-injection of NOTA-PEG2-RM26), 2 h, read-out: Radionuclide quantity, Gastrointestinal tract); 16.3 ± 1.6 %ID in data set [2] (total (sum of the measured activities), 50 pmol, 2 h p.i., i.v., sum of the measured activities, read-out: Radionuclide quantity, Total); 8.5 ± 3 %ID in data set [2] (total, Blockade (co-injection of NOTA-PEG2-RM26), 2 h, read-out: Radionuclide quantity, Total). For the same compound, the amount remaining at 1 h, 1 µM in data set [3] (PBS buffer, pH 7.4, incubation at 37 °C for 1 h in PBS) is 95 ± 2.9%. For the same compound, in data set [3] (incubation at 37 °C for 1 h in PBS with 1000-fold molar excess of EDTA, in % (unit assumed)), the “Stability in PBS with EDTA” value was 92.6 ± 4.7. The log distribution coefficient (logD) in data set [4] was -0.97 ± 0.01.
